Laboratory results reported in patent US8664391B2, “Amide compounds as boosters of antivirals” (Janssen R&D Ireland Ltd, priority 2008, dated 2014).
Read-outs that look alike come from different tables or passages of the source.

Columns and labels:
[1] = test system: wild-type HIV-1 IIIB strain; assay: Antiviral activity in MT4 LTR-EGFP cellular assay; format: cell-based; conditions: read-out: Antiviral Activity IIIB pEC50 (converted)
Protocol: (§1) Assay 1 &2: Antiviral Activity/Toxicity
The compounds of the present invention were tested for antiviral activity in a cellular assay, which was performed according to the following procedure.
The human T-cell line MT4 is engineered with Green Fluorescent Protein (GFP) and an HIV-specific promoter, HIV-1 long terminal repeat (LTR). This cell line is designated MT4 LTR-EGFP, and can be used for the in vitro evaluation of anti-HIV activity of investigational compounds. In HIV-1 infected cells, the Tat protein is produced which upregulates the LTR promotor and finally leads to stimulation of the GFP reporter production, allowing measuring ongoing HIV-infection fluorometrically.
(§2) The ratio of CC50 to EC50 is defined as the selectivity index (SI) and is an indication of the selectivity of the anti-HIV activity of the inhibitor. The ultimate monitoring of HIV-1 infection and cytotoxicity is done using a scanning microscope. Image analysis allows very sensitive detection of viral infection. Measurements are done before cell necrosis, which usually takes place about five days after infection, in particular measurements are performed three days after infection.
A pEC50 value corresponds to −log10(EC50). A pCC50 value corresponds to −log10(CC50).

[2] = Cytotoxicity in mock-infected MT4 CMV-EGFP cells; format: cell-based; conditions: human, pCC50 = -log10(CC50), read-out: Toxicity MT4 pCC50 (converted)
Description: as §1
Analogously, MT4 cells are engineered with GFP and the constitutional cytomegalovirus (CMV) promotor. This cell line is designated MT4 CMV-EGFP, and can be used for the in vitro evaluation of cytotoxicity of investigational compounds. In this cell line, GFP levels are comparably to those of infected MT4 LTR-EGFP cells. Cytotoxic investigational compounds reduce GFP levels of mock-infected MT4 CMV-EGFP cells.
as §2, with “Effective concentration values such as 50% effective concentration (EC50) can be determined and are usually expressed in μM. An EC50 value is defined as the concentration of test compound that reduces the fluorescence of HIV-infected cells by 50%. The 50% cytotoxic concentration (CC50 in μM) is defined as the concentration of test compound that reduces fluorescence of the mock-infected cells by 50%. The ratio” for “The ratio”
Table 2 lists pEC50 values against the wild-type HIV-1 IIIB strain as well as pCC50 values for a selected number of compounds of the invention. A pEC50 value corresponds to −log10(EC50). A pCC50 value corresponds to −log10(CC50).

in vitro = in vitro ADME, human; conditions: pH 7.4
Description: Assay 3: Metabolic Stability of Test Compounds (HLM15′)
Sub-cellular tissue preparations are made according to Gorrod et al. (Xenobiotica, 5, pp. 453-462 (1975)) by centrifugal separation after mechanical homogenization of tissue. Human liver tissue is rinsed in ice-cold 0.1 M Tris-HCl (pH 7.4) buffer to wash excess blood. Tissue is then blotted dry, weighed and chopped coarsely using surgical scissors. The tissue pieces are homogenized in 3 volumes of ice-cold 0.1 M phosphate buffer (pH 7.4) using either a Potter-S (Braun, Italy) equipped with a Teflon pestle or a Sorvall Omni-Mix homogenizer, for 7×10 sec. In both cases, the vessel is kept in/on ice during the homogenization process. Tissue homogenates are centrifuged at 9000×g for 20 min at 4° C. using a Sorvall centrifuge or Beckman Ultracentrifuge. The resulting supernatant can be stored at −80° C. and is designated ‘S9’. The S9 fraction is centrifuged at 100,000×g for 60 min at 4° C. using a Beckman ultracentrifuge. The resulting supernatant is carefully aspirated, aliquoted and designated ‘cytosol’. The pellet is re-suspended in 0.1 M phosphate buffer (pH 7.4) in a final volume of 1 ml per 0.5 g original tissue weight and designated ‘microsomes’. All sub-cellular fractions are aliquoted, immediately frozen in liquid nitrogen and stored at −80° C. until use.
Heat-inactivated (10 min at 95° C.) ‘S9’ or microsomes were used for blank experiments. Reaction mixtures were incubated at 37° C. for 5 min, after which the reaction was started by the addition of 0.8 mM β-NADP. The reaction was incubated for 0 or 15 min. Next, the reaction was stopped by addition of 2 volumes of DMSO (or acetonitrile). Samples were centrifuged (10 min, 900×g) and analyzed by LC-MS.

CYP3A4 = biological target: T1, CYP3A4 (Homo sapiens, UniProt P08684); assay: CYP450 inhibition, fluorescent substrate assay, CYP3A4; format: biochemical; conditions: 10 μM test compound; for inhibition at 10 min, 10 μM: E. coli expressed CYP3A4, pH 7.4, probe DBF (1 μM), substrate DBF 1 μM, read-out: 3A4-DBF % inh.
T1 construct: host or cells: E. coli
Protocol: (§3) Assay 4: CYP450 Inhibition […] This fluorescent molecule was measured using a fluorescent plate reader (Victor2 (Wallac) or Fluoroskan (Labsystems)). Compounds inhibiting the enzymatic reaction will result in a decrease of fluorescent signal. CYP P450 enzymes were prepared in house or commercially bought and stored at −80° C. [table] The assay was performed in black 96 well Costar plates. Test compounds were added to a CYP P450 enzyme solution in the presence of an NADPH generating system. After 5 min of preincubation at 37° C., the freshly prepared, phosphate buffered (pH 7.4) substrate solution was added. Known CYP P450 inhibitors were used as positive controls, negative controls were run without CYP P450 enzyme. For final reaction mixture concentrations, see Table 6. […] Then, the reaction was stopped by the addition of 200 μl acetonitrile, and the fluorescent signal was detected. [table] […] Inhibition of TMC114 Metabolisation

CYP2C9 = CYP2C9 (Homo sapiens, UniProt P11712); assay: CYP450 inhibition, fluorescent substrate assay, CYP2C9; format: biochemical
Protocol: as §3

CYP2D6 = biological target: T2, CYP2D6 (Homo sapiens, UniProt P10635); assay: CYP450 inhibition, fluorescent substrate assay, CYP2D6; format: biochemical; conditions: E. coli expressed CYP2D6, pH 7.4, probe AMMC (3 μM), 10 μM test compound, substrate AMMC 3 μM, read-out: 2D6-AMMC % inh.
T2 construct: host or cells: E. coli
Protocol: as §3

CYP1A2 = biological target: T3, CYP1A2 (Homo sapiens, UniProt P05177); assay: CYP450 inhibition, fluorescent substrate assay, CYP1A2; format: biochemical; conditions: E. coli expressed CYP1A2, pH 7.4, probe CEC (5 μM), 10 μM test compound, substrate CEC 5 μM, read-out: 1A2-CEC % inh.
T3 construct: host or cells: E. coli
T3 sequence (P05177 1-516): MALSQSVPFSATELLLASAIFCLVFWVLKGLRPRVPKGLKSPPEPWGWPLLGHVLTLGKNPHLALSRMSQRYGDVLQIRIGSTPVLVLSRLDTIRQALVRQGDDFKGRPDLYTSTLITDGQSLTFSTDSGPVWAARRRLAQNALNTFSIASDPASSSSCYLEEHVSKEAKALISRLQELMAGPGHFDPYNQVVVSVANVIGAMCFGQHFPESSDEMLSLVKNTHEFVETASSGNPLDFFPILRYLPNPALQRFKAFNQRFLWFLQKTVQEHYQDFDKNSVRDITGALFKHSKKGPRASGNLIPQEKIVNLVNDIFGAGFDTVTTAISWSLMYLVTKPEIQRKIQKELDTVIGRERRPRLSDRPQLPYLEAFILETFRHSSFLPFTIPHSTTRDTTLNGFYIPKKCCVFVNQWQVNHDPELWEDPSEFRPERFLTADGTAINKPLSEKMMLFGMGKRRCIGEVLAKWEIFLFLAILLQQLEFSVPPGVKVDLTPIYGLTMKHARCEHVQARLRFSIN
Protocol: as §3

CYP2C19 = biological target: T4, CYP2C19 (Homo sapiens, UniProt P33261); assay: CYP450 inhibition, fluorescent substrate assay, CYP2C19; format: biochemical; conditions: E. coli expressed CYP2C19, pH 7.4, probe CEC (25 μM), 10 μM test compound, substrate CEC 25 μM, read-out: 2C19-CEC % inh.
T4 construct: host or cells: E. coli
Protocol: as §3

[3] = Human immunodeficiency virus 1, 72 h, wild-type HIV-1 IIIB, MT4 LTR-EGFP cells, three days after infection, pEC50 = -log10(EC50)
[4] = E. coli expressed CYP3A4, pH 7.4, probe BFC (150 μM), substrate BFC 150 μM, read-out: 3A4-BFC % inh.
[5] = E. coli expressed CYP3A4, pH 7.4, probe BQ (60 μM), substrate BQ 60 μM, read-out: 3A4-BQ % inh.
[6] = Human immunodeficiency virus 1, IIIB, 72 h
[7] = human liver microsomes 1 mg/ml, 5 μM test compound, 15 min, 37° C., read-out: % recovery HLM15
[8] = pH 7.4, 10 μM test compound, substrate MFC 200 μM, 30 min, read-out: 2C9-MFC % inh.

CYP2C9, sequence (P11712 whole entry): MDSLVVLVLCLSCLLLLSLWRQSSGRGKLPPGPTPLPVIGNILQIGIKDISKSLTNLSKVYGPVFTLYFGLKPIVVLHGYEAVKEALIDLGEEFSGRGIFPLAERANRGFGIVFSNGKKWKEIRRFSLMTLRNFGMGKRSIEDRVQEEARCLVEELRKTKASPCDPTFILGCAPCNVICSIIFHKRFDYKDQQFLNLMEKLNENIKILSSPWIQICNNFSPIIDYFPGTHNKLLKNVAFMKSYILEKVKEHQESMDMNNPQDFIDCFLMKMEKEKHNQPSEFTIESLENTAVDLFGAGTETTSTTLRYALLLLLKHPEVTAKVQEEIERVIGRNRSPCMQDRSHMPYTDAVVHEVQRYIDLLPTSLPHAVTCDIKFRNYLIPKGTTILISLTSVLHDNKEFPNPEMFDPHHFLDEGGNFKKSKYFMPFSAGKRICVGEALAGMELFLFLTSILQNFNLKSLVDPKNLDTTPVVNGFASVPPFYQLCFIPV
T4 sequence (P33261 whole entry): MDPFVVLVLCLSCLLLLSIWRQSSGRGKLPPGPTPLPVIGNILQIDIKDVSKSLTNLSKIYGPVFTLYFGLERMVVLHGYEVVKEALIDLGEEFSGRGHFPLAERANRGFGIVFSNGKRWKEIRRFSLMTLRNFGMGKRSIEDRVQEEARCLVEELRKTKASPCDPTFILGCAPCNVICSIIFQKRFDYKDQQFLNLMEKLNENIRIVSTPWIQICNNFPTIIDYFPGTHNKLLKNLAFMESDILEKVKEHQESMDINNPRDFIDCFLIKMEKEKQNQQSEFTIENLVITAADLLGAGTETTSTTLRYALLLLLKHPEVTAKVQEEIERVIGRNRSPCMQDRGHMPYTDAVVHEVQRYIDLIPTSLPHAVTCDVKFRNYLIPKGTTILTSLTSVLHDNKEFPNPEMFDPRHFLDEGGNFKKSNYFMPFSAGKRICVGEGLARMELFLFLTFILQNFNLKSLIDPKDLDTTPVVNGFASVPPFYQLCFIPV
T1 sequence (P08684 whole entry): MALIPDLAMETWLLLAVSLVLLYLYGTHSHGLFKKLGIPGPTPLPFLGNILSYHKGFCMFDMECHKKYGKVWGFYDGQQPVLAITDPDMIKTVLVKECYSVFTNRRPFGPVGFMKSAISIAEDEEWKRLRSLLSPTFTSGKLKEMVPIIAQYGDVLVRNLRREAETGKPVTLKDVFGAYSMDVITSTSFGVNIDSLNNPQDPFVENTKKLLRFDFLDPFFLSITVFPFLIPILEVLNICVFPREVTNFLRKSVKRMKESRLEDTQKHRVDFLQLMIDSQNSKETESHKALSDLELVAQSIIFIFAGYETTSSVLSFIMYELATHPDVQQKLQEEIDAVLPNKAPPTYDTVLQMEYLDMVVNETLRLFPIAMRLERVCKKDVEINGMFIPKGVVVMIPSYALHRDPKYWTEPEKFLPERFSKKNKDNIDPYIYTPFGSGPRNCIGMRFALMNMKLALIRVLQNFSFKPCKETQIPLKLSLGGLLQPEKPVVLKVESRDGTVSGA
T2 sequence (P10635 whole entry): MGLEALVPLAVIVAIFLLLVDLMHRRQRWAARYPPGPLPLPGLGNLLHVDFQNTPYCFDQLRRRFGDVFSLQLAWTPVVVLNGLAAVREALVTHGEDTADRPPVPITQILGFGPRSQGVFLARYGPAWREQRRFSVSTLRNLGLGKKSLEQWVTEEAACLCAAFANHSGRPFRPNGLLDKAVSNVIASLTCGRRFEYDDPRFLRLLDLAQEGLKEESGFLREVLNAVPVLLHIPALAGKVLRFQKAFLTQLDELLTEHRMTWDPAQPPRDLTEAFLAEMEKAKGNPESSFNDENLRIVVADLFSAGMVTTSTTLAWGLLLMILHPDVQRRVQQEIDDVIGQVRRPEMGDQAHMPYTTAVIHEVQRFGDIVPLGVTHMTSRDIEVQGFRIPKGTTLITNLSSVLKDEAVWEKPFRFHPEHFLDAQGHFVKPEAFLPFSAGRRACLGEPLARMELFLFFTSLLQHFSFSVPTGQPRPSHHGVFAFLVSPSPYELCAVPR

Row | SMILES | EC50 [1, 3] [µM] | CC50 at 3 days [2] [µM] | recovery at 15 min, 5 μM (in vitro; human) [%] | inhibition at 30 min, 10 μM (CYP3A4; [4]) [%] | inhibition at 30 min, 10 μM (CYP3A4; [5]) [%] | inhibition at 10 min, 10 μM (CYP3A4) [%] | inhibition at 30 min, 10 μM (CYP2C9; pH 7.4) [%] | inhibition at 45 min, 10 μM (CYP2D6) [%] | inhibition at 15 min, 10 μM (CYP1A2) [%] | inhibition at 30 min, 10 μM (CYP2C19) [%] | EC50 [1, 6] [µM] | recovery at 15 min, 5 μM (in vitro; [7]) [%] | inhibition at 30 min, 10 μM (CYP2C9; [8]) [%]
1 | CC(C)(C)CN(C[C@@H](O)[C@H](Cc1ccccc1)NC(=O)OCc1cncs1)C(=O)c1ccncc1 [Compound C22] | > 100 | > 100 | 77 | 93 | 74 | 89 | 69 | 62 | 0 | 60 |  |  | 
2 | CC(C)CN(C[C@@H](O)[C@H](Cc1ccccc1)NC(=O)OCc1cncs1)C(=O)c1cccc(Cl)c1 [Compound C15] | 50.1 | 42.7 | 57 | 75 | 80 | 92 | 97 | 41 | 51 | 92 |  |  | 
3 | CC(C)CN(C[C@@H](O)[C@H](Cc1ccccc1)NC(=O)OCc1cncs1)C(=O)c1cccc(Br)c1 [Compound C17] |  | 36.3 |  | 57 | 81 | 93 |  | 46 | 55 | 87 | 41.7 | 68 | 98
4 | CC(C)CN(C[C@@H](O)[C@H](Cc1ccccc1)NC(=O)OCc1cncs1)C(=O)c1ccc(Br)cc1 [Compound C18] |  | 41.7 |  | 83 | 84 | 94 |  | 64 | 63 | 93 | 38.9 | 57 | 98
5 | CC(C)CN(C[C@@H](O)[C@H](Cc1ccccc1)NC(=O)OCc1cncs1)C(=O)c1cccnc1 [Compound C13] | > 100 | > 100 | 69 | 81 | 84 | 94 | 95 | 64 | 8 | 67 |  |  | 
6 | CC(C)CN(C[C@@H](O)[C@H](Cc1ccccc1)NC(=O)OCc1cncs1)C(=O)CCc1cncs1 [Compound C24] | 97.7 | > 100 | 56 | 101 | 82 | 89 | 92 | 96 | 13 | 86 |  |  | 
7 | COc1cccc(C(=O)N(CC(C)C)C[C@@H](O)[C@H](Cc2ccccc2)NC(=O)OCc2cncs2)c1 [Compound C7] | 83.2 | 70.8 | 56 | 92 | 80 | 94 | 97 | 45 | 13 | 89 |  |  | 
